Laboratory results taken from patent publication US9193777B2, “Method of treating cardiac arrhythmia with long acting atrial natriuretic peptide(LA-ANP)” (Mayo Foundation for Medical Education and Research, priority 2009, dated 2015).
Marks after values point to notes of the source that are not given here.

Key:
[1] = tested on: 10 week old male FVB mice; assay: Programmed electrical stimulation of the ventricles in anesthetized mice; type: in vivo, mouse; conditions: for ERP versus 30 minute saline group (in words) / ERP (ventricular effective refractory period) / Heart rate / PR interval / QRST interval: anesthetized mice; for ERP versus 30 minute saline group (in words): 30 minute treatment, ANOVA; for ERP (ventricular effective refractory period) / Heart rate / PR interval / QRST interval: after 30 minute peritoneal infusion 33 pmol/kg/min following 330 pmol/kg bolus, n=3; for VT score: sum over three mice, after 30 minute infusion, higher score = greater resistance to arrhythmia induction
Procedure: Programmed electrical stimulation of the ventricles was performed across the diaphragm via bipolar electrode catheter placed through an abdominal incision in 10 week old male FVB mice anesthetized with inhaled isoflurane, and was continuously monitored by electrocardiogram. Electrophysiologic parameters were analyzed at baseline and after a 30 minute peritoneal infusion of saline vs. 33 pmol/kg/min ANP or mANP, following a 330 pmol/kg bolus. […] The ventricular tachycardia (VT) score was obtained by scoring 1 point for induction of sustained VT with a single extrastimulus, 2 points for induction with double extrastimuli, and 3 points for failure to induce with single or double extrastimuli. Nonsustained VT (less than 1 second) was not scored. The score for each of three mice in a group was added. A higher score indicates greater resistance to arrhythmia induction.

[2] = tested on: isolated perfused hearts obtained from male rats; assay: Isolated heart model: atrial monophasic action potential and effective refractory period; conditions: isolated rat heart; for effect on MAP duration (in words): 40-minute perfusion; for decrease in MAPD90 versus baseline: mANP n=8, ANP n=10
Procedure: Atrial monophasic action potentials and effective refractory periods were measured in isolated perfused hearts obtained from male rats. Rapid cardiectomy was performed in male rats weighing 300-350 g, under general anesthesia with pentobarbital. The hearts were retrogradely perfused via the aorta at constant pressure and temperature (100 mmHg and 37° C.) with Kreb's-Henseleit buffer filtered at 0.22 μm and bubbled with 95% O2/5% CO2 at 37° C. and pH 7.4. Coronary perfusion flow was monitored constantly (T402, Transonic Systems, Ithaca, N.Y.) and remained >10 ml/min.
After establishment of a stable perfused heart preparation, the posterior atria were cut away to expose the left and right atrial endocardium and the atrioventricular (AV) node was mechanically crushed, resulting in AV dissociation. The right atrium was paced (Bloom Electrophysiology, via Fischer Imaging, Denver, Colo.) at a cycle length of 150 msec with a 0.1 msec pulse width using a bipolar platinum-tipped electrode (NuMED, Inc., Hopkinton, N.Y.), while the right ventricle was paced at a cycle length of 500 msec. A monophasic action potential (MAP) probe (Harvard Apparatus, Holliston, Mass.) was maintained in a single position on the anterior left atrial endocardium. Amplified signals (IsoDam, World Precision Instruments, Sarasota, Fla.) were digitally acquired at 2 kHz (USB-6210 and LabVIEW 8.2, National Instruments, Austin, Tex.). The MAP duration was measured at 90% repolarization on atrial beats without far field ventricular interference. The effective refractory period (ERP) was measured by delivering extrastimuli via the pacing catheter at decremental coupling intervals following at least 8 beats of a 150 ms cycle-length drive train. […] In separate heart preparations, the perfusion buffer was supplemented after baseline data acquisition with 100 nM of either ANP or mANP to assess the effect of both the wild-type and mutant hormones on MAP duration and ERP.
A two-sided t-test was used for comparison of data, assuming equal variance. Data are expressed as mean±S.E., and results were considered significant at p<0.05.

[3] = 100 nM, 40 minutes perfusion, mean±S.E.

Compound: mANP: Full-length 40-amino acid mutant ANP: normal 28-amino acid mature peptide plus an anomalous carboxyl-terminus of 12 residues (SLRRSSCFGGRMDRIGAQSGLGCNSFRYRITAREDKQGWA; listed as Homo sapiens)
- ERP versus 30 minute saline group (in words) [1]: significantly shorter
- ERP (ventricular effective refractory period) [1]: 19 + 4* msec
- Heart rate [1]: 243 + 16 min^−1
- PR interval [1]: 76 + 4 msec
- QRST interval [1]: 26 + 1 msec
- VT score [1]: 5
- effect on MAP duration (in words) ([2]; 100 nM): significant shortening
- reduction in effective refractory period (ERP) versus baseline ([2]; 100 nM, 40 minutes perfusion, mean±S.E., mANP n=7, ANP n=6): 7.1 ± 2.4 ms
- decrease in MAPD90 versus baseline [2, 3]: 9 ± 2 ms
- effect on ERP (in words) ([2]; 100 nM, compared to wild-type ANP): significant shortening
- MAP duration at 90% repolarization (MAPD90), representative MAP ([2]; after 40-minute perfusion with 100 nM peptide, shortened from 47 msec at baseline): 41 ms

Compound: CC[C@H](C)[C@@H]1NC(=O)[C@H](CCCNC(=N)N)NC(=O)[C@H](CC(=O)O)NC(=O)[C@H](CCSC)NC(=O)[C@H](CCCNC(=N)N)NC(=O)CNC(=O)CNC(=O)[C@H](Cc2ccccc2)NC(=O)[C@@H](NC(=O)[C@H](CO)NC(=O)[C@H](CO)NC(=O)[C@H](CCCNC(=N)N)NC(=O)[C@H](CCCNC(=N)N)NC(=O)[C@H](CC(C)C)NC(=O)[C@@H](N)CO)CSSC[C@@H](C(=O)N[C@@H](CC(N)=O)C(=O)N[C@@H](CO)C(=O)N[C@@H](Cc2ccccc2)C(=O)N[C@@H](CCCNC(=N)N)C(=O)N[C@@H](Cc2ccc(O)cc2)C(=O)O)NC(=O)CNC(=O)[C@H](CC(C)C)NC(=O)CNC(=O)[C@H](CO)NC(=O)[C@H](CCC(N)=O)NC(=O)[C@H](C)NC(=O)CNC1=O [ANP, atrial natriuretic peptide]
- ERP versus 30 minute saline group (in words) [1]: not a significant difference
- ERP (ventricular effective refractory period) [1]: 28 + 2 msec
- Heart rate [1]: 255 + 8 min^−1
- PR interval [1]: 73 + 4 msec
- QRST interval [1]: 23 + 1 msec
- VT score [1]: 3
- effect on MAP duration (in words) ([2]; 100 nM): not significantly changed
- decrease in MAPD90 versus baseline [2, 3]: 0.7 ± 1.7 ms
